The subject of this assay is T1, cold-active lipase from Pseudomonas sp. A6.
T1 construct: 65 kDa by SDS-PAGE
Kind of assay: spectrophotometric p-nitrophenol release at […] nm; Lineweaver-Burk plot. It is filed as biochemical. The note with it: 10 °C; phosphate buffer; pH of the Km assay not stated; unit printed ambiguously as 'm mol'.

The results in this text go back to PMC10484855, “Production, purification, and characterization of cold-active lipase from the psychrotroph Pseudomonas sp. A6” (Brazilian Journal of Microbiology, 2023).

For the molecule `CCCCCCCCCCCC(=O)Oc1ccc([N+](=O)[O-])cc1` [p-nitrophenyl laurate], the Km is 6.6 * 10^−4 m mol L^−1.
